# Assays:
# [1] = test system: IL-4 and IFN-γ; assay: IL-4 and INF-γ in spleen cell supernatants (Quantikine ELISA); assay type: in vivo, mice
# Protocol: In RPMI-1640, spleen cells were diluted to a concentration of 10^7/ml with 10% fetal calf serum, 2 mM L-glutamine and 80 ìg/ml gentamycin. A 100 ìl cell suspension was added to each well of a 96-well culture plate and cytokine production was induced by Con A at a final concentration of 2.5 ìg/ml. A control well included RPMI-1640. For 24 hours, cells were incubated at 37° C. and humidified in 5% CO2. Following incubation, […] of supernatant was removed from each well and stored at −70° C.
# IL-4 and INF-γ assays in Con A-stimulated spleen cell supernatants were also performed using Quantikine™ ELIZA kits R & D Systems, Minneapolis, Minn.) in accordance with kit instructions. Plates were coated with monoclonal antibodies to either IL-4 or IFN-γ and blocked. Standards and samples were subsequently added. The cells were incubated for 2 h and washed, following with the addition of a colorimetric substrate. After 30 minutes, the reaction was terminated and plates were read at 450 nm using a plate reader (Multiscan™ 3550, BioRad, Japan).
# [2] = test system: thymic cells; assay: Thymic cell proliferation (3H-thymidine) from treated infected mice; assay type: in vivo
# Protocol: Mice thymuses were collected aseptically, homogenized, suspended in RPMI-1640 medium and filtered through two layers of sterile gauze. Cell suspensions were washed twice in RPMI-1640 with 2 mM L-glutamine and […] gentamycin, then counted using a Goriaev hemocytometer.
# Spleen cells and thymic cells were isolated as described above. In vitro, thymic cells were diluted to 10^7/ml in RPMI-1640 with 2 mM L-glutamine, 80 ìg/ml gentamycin and 4% heat-inactivated fetal calf serum (Sigma, St. Louis, Mo.). Spleen cells were diluted to 3×10^6/ml in RPMI-1640 with 2 mM L-glutamine, 80 ìg/ml gentamycin and 20% inactivated fetal calf serum. 0.5 ìg/ml Concanavalin A (Con A, Sigma, St. Louis, Mo.) was used to stimulate thymic cell proliferation. For spleen cell proliferation, 0.5 ìg/ml Con A, 10 ìg/ml lipopolysaccharide (Sigma, St. Louis, Mo.), and 50 ìg/ml tuberculin purified protein derivative (PPD) were utilized. The assay was carried out in 96-well plates and cell cultures were incubated for 72 hours, or 96 hours if tuberculin was used, at 37° C. in humidified 5% CO2, then pulsed with 5 ìl Ci/ml ^3H-thymidine overnight (approximately 16 h) and harvested on filters using a semi-automated harvester (Titertek™, Flow Laboratories, Norway). Filters were dried and proliferation calculated by ^3H-thymidine incorporation by counting samples in a liquid scintillation counter (LKB 1217 Racketa, Wallace, Sweden). Data was expressed in impulses per minute.
# [3] = test system: blood leukocytes; assay type: in vivo, mice
# [4] = test system: tuberculosis; assay: SCV-07 in patients with destructive lung tuberculosis, 20 treated versus 15 control (Example 3); assay type: in vivo, human
# Protocol: Patients with destructive lung tuberculosis, untreated previously or after inadequate antituberculosis therapy were treated. All patients received antituberculosis therapy consisting of intravenous isoniazid and four to five other drugs and the condition of each patient was examined daily. Major diagnostic criteria included physical examination, chest X-ray, sputum bacterioscopy and culture, broncho alveolar lavage examination. Also included were blood counts performed in all patients prior to SCV-07 therapy and then once per week. Blood biochemical tests including blood fibrinogen, β-lipoproteins, urea, creatinine, C-reactive protein levels, activity of alanine and asparagine transaminases were performed once per month and more frequently if needed. Sputum cultures were taken prior to therapy and one and three months after SCV-07 therapy, and serologic assays including indirect hemaglutination tests.
# Bilateral lung injury was found in 11 patients. […] In all cases, the pathological process was destructive. […] Immature cavities were diagnosed in 3 cases. Multiple cavities, X-ray markers and exudative inflammation predominated in all patients.
# Females slightly predominated the experimental group (55%). Patients ranged in age from 20 to 40 years of age. All patients had symptoms of toxemia, including 4 patients with severe symptoms.
# Immunological studies included counting the percentage of peripheral blood lymphocyte subsets such as CD3+, CD4+, CD8+, CD20+, CD25+ and CD95+ using monoclonal antibodies. The CD4/CD8 index was calculated as well. Elevation of CD3+ and CD4+ cell levels were apparent in 7 out of 14 patients immediately after SCV-07 therapy.
# Phytohemagglutinin (PHA) and purified protein derivate (PPD)-induced lymphocytes blasttransformation were also investigated.
# [5] = test system: tuberculosis; assay: SCV-07 therapy of a patient with infiltrative tuberculosis (Example 1); assay type: in vivo, human; settings: after SCV-07 0.1 mg daily for 5 days
# Protocol: A patient, was admitted to the hospital with infiltrative tuberculosis with destruction and dissemination in the upper lobe of the left lung. […] Lymphopenia (18%) and increased ESR (25 mm/h) were present in the blood count. […] Aggressive traditional antituberculosis therapy was carried out including isoniazid at 600 mg/day intravenously, pyrazinamid at 1500 mg/day per os, rifampicin at 450 mg/day per os.
# The traditional therapy was unsuccessful, and SCV-07 treatment was undertaken. Following a course of SCV-07 therapy at 0.1 mg daily for 5 days, bacterial intoxication resolved, destructive cavities closed and the sputum culture test was negative. CD3+ lymphocytes increased and tolerance to other drugs improved.
# [6] = 17 days after SCV-07 therapy, Groups 8 and 9 (0.01 ìg/kg ip and 1 ìg/kg po)
smiles,measurement,setting,value
"N[C@H](CCC(=O)N[C@@H](Cc1c[nH]c2ccccc12)C(=O)O)C(=O)O [SCV-07, γ-D-glutamyl-L-tryptophan]",basal IFN-γ production,"[1]; 4 days after therapy, versus isoniazid control mice (Group 3)",failed to differ
same,Con A stimulated INF-γ production,"[1]; 10 days after therapy, Groups 4, 5, 6 and 8",stimulation
same,Con A stimulated IL-4 production,"[1]; 10 days after therapy, Groups 5, 6 and 7",significantly decreased
same,basal IFN-γ production,"[1]; 17 days after therapy, all mice",increase
same,basal INF-γ production,"[1]; end of the experiment, only Group 6 (1 ìg/kg ip, 10 injections)",maintenance of this increase
same,basal IL-4 production,"[1]; mouse, in vivo",No significant changes
same,basal IFN-γ production,"[1]; ten days after therapy, Groups 5, 6 and 7",significant elevation
same,basal thymic cell proliferation,[2]; SCV-07 treated (Groups 4 to 9) versus control (Groups 1 to 3),No significant differences
same,Con A stimulated thymic cell proliferation,"[2]; after 4 days, Group 7 (0.1 ìg/kg ip) in comparison to Group 3 (isoniazid control)",significantly higher
same,Con A stimulated thymic cell proliferation response,"[2]; day 17, Groups 7 and 8 (0.1 and 0.01 ìg/kg ip)",essentially the same response as uninfected mice
same,Con A stimulated thymic cell proliferation,"[2]; day 24, Groups 6, 7 and 8 (1 ìg/kg 10 injections ip, 0.1 and 0.01 ìg/kg ip)",higher numbers than the isoniazid control
same,Significant changes in blood lymphocytes and neutrophilic granulocytes,[3]; 4 days after therapy,not observed
same,monocyte levels,"[3]; 10 days after therapy, Groups 6, 7, 8 and 9 compared with Group 3, the isoniazid control",decrease
same,lymphocyte numbers,[3]; [6],increase
same,percent of neutrophils,[3]; [6],significant decrease
same,IL-2 production after stimulation with the mitogens PHA and PPD,[4]; SCV-07 treated patients,greatly increased
same,"Cavity closure, patients","[4]; after 3 months of observation, 13.3% in the control group",25%
same,"Negative sputum culture tests, patients","[4]; after 3 months, 33.3% in the control group",65%
same,"Negative sputum culture tests, patients","[4]; after a month of observation, 13.3% in the control group",30%
same,"Serum bilirubin, creatinine, urea, alanine and asparagine transaminase",[4]; during SCV-07 therapy,stabilized
same,Hematological signs of tuberculosis activity including white blood cell counts and ESR,[4]; experimental group,mostly diminished
same,body temperature,[4]; experimental group,decreased in all cases
same,Moist rates resolved,[4]; experimental group (20 patients),16 patients
same,"T-cell blasttransformation responses (PHA, PPD)",[4]; experimental group compared with control group,markedly increased
same,chest X-ray and tomogram,[4]; following two months of SCV-07 therapy,resolution of the infiltrate-like shadow
same,CD4+/CD8+ ratio,[4]; immediately after SCV-07 therapy,increased
same,"Serum biochemical inflammation markers such as fibrinogen, β-lipoprotein, CRP",[4]; in one month,decreased
same,"Elevation of CD3+ and CD4+ cell levels, patients","[4]; out of 14 patients, immediately after SCV-07 therapy",7 patients
same,Toxemia symptoms substantially resolved,"[4]; within a month, experimental group (20 patients), with antituberculosis therapy",half of the patients
same,CD3+ lymphocytes,[5],increased
same,bacterial intoxication,[5],resolved
same,destructive cavities,[5],closed
same,Immune complexes in circulation,"[5]; from 84 U, normal level 22-66 U",69 U
same,sputum culture test,[5]; traditional therapy was unsuccessful,negative
